From patent publication US20170064958A1, “Active compound combinations having insecticidal properties” (BAYER CROPSCIENCE AKTIENGESELLSCHAFT, priority 2014, published 2017) come the findings set out here.

What all share (type): in vivo
Test [1] has as its system mustard beetle larvae (Phaedon cochleariae). The test can be described thus: Phaedon cochleariae - spray test. Particulars: single active ingredient, 0.16 g ai/ha, mortality after 6 d, Chinese cabbage leaf disks. How it is done: (§1) To produce a suitable preparation of active compound, 1 part by weight of active compound is mixed with the stated amount of solvents and is diluted with water, containing an emulsifier concentration of 1000 ppm, to the desired concentration. To produce a suitable preparation of a spore suspension the spores are diluted with emulsifier containing water to the desired concentration. Further test concentrations are prepared by dilution with emulsifier containing water.
Chinese cabbage (Brassica pekinensis) leaf disks are sprayed with a preparation of the active ingredient of the desired concentration. Once dry, the leaf disks are infested with mustard beetle larvae (Phaedon cochleariae).
After the specified period of time, mortality in % is determined. 100% means all beetle larvae have been killed and 0% means none of the beetle larvae have been killed. The mortality values determined thus are recalculated using the Colby-formula (see sheet 1).

For test [2], the system named is two spotted spidermite (Tetranychus urticae). The test can be described thus: Tetranychus urticae - spray test OP-resistant. Particulars: single active ingredient, French bean leaf disks; for Efficacy in % after 2d: 0.8 g ai/ha, mortality after 2 d. The protocol: as §1
French bean (Phaseolus vulgaris) leaf disks which are heavily infested with all stages of the two spotted spidermite (Tetranychus urticae), are sprayed with a preparation of the active ingredient of the desired concentration.
After the specified period of time, mortality in % is determined 100% means all spider mites have been killed and 0% means none of the spider mites have been killed. The mortality values determined thus are recalculated using the Colby-formula (see sheet 1).

In test [3] the test system is green peach aphid (Myzus persicae). The test can be described thus: Myzus persicae - spray test. The settings on record: single active ingredient, 0.8 g ai/ha, mortality after 1 d, Chinese cabbage leaf disks. How it is done:
as §1
Chinese cabbage (Brassica pekinensis) leaf disks infected with all instars of the green peach aphid (Myzus persicae), are sprayed with a preparation of the active ingredient of the desired concentration.
After the specified period of time, mortality in % is determined 100% means all aphids have been killed; 0% means none of the aphids have been killed. The mortality values determined thus are recalculated using the Colby-formula (see sheet 1).

Regarding `CC1(C)[C@H](C(=O)O[C@H](C#N)c2cccc(Oc3ccccc3)c2)[C@@H]1/C=C(\Cl)C(F)(F)F` (racemic) [Lambda- Cyhalothrin, lambda-Cyhalothrin], in test [1], the “Efficacy in % after 6d” value stood at 33%.
`Cc1c(COC(=O)[C@@H]2[C@H](/C=C(\Cl)C(F)(F)F)C2(C)C)cccc1-c1ccccc1` (racemic) [Bifenthrin]: in test [2], the “Efficacy in % after 2d” value stood at 0%.
For the compound `CC1(C)[C@H](C(=O)O[C@H](C#N)c2cccc(Oc3ccccc3)c2)[C@@H]1/C=C\C(=O)OC(C(F)(F)F)C(F)(F)F` [Acrinathrin], in test [2] (0.16 g ai/ha, mortality after 6 d), the “Efficacy in % after 6d” value came out at 0%. Also, the “Efficacy in % after 2d” value in test [2] is listed as 0%. Further, the “Efficacy in % after 1d” value in test [3] turned out to be 70%.
On to `CC1(C)[C@H](C(=O)O[C@H](C#N)c2cccc(Oc3ccccc3)c2)[C@@H]1C=C(Br)Br` [Deltamethrin], for which, in test [2], the “Efficacy in % after 2d” value is recorded as 0%.
